Experimental data taken from article PMC7403980, “Anti-Inflammatory Effects of the Novel PIM Kinase Inhibitor KMU-470 in RAW 264.7 Cells through the TLR4-NF-κB-NLRP3 Pathway” (International Journal of Molecular Sciences, 2020).

What was measured:
BTK (h) = target: T1, BTK (h) (Homo sapiens, UniProt Q06187); test: Kinase profiling (Eurofins Cerep); assay type: biochemical; settings: KMU-470 10 μM; ATP at Km
T1 construct: purchased Eurofins Cerep S.A. (kinase profiler service)
Method: (§1) To test the specificity of the novel PIM kinase inhibitor KMU-470, a kinase profiler service was conducted by Eurofins Cerep S.A. The screening was performed with 1 and 10 μM of compound and a concentration of ATP at the Km value for each individual kinase and kinase substrate according to Eurofin’s protocols.

Blk (h) = target: T2, Blk (h) (Homo sapiens, UniProt P51451); test: Kinase profiling (Eurofins Cerep); assay type: biochemical; settings: ATP at Km
T2 construct: purchased Eurofins Cerep S.A. (kinase profiler service)
Method: as §1

Bmx (h) = target: T3, Bmx (h) (Homo sapiens, UniProt P51813); test: Kinase profiling (Eurofins Cerep); assay type: biochemical; settings: KMU-470 10 μM; ATP at Km
T3 construct: purchased Eurofins Cerep S.A. (kinase profiler service)
Method: as §1

Csrc (h) = target: T4, Csrc (h) (Homo sapiens, UniProt P12931); test: Kinase profiling (Eurofins Cerep); assay type: biochemical; settings: KMU-470 10 μM; ATP at Km
T4 construct: purchased Eurofins Cerep S.A. (kinase profiler service)
Method: as §1

Fgr (h) = target: T5, Fgr (h) (Homo sapiens, UniProt P09769); test: Kinase profiling (Eurofins Cerep); assay type: biochemical; settings: ATP at Km
T5 construct: purchased Eurofins Cerep S.A. (kinase profiler service)
Method: as §1

Fyn (h) = target: T6, Fyn (h) (Homo sapiens, UniProt P06241); test: Kinase profiling (Eurofins Cerep); assay type: biochemical; settings: ATP at Km
T6 construct: purchased Eurofins Cerep S.A. (kinase profiler service)
Method: as §1

Hck (h) = target: T7, Hck (h) (Homo sapiens, UniProt P08631); test: Kinase profiling (Eurofins Cerep); assay type: biochemical; settings: KMU-470 10 μM; ATP at Km
T7 construct: purchased Eurofins Cerep S.A. (kinase profiler service)
Method: as §1

Itk (h) = target: T8, Itk (h) (Homo sapiens, UniProt Q08881); test: Kinase profiling (Eurofins Cerep); assay type: biochemical; settings: ATP at Km
T8 construct: purchased Eurofins Cerep S.A. (kinase profiler service)
T8 sequence (Q08881 whole entry): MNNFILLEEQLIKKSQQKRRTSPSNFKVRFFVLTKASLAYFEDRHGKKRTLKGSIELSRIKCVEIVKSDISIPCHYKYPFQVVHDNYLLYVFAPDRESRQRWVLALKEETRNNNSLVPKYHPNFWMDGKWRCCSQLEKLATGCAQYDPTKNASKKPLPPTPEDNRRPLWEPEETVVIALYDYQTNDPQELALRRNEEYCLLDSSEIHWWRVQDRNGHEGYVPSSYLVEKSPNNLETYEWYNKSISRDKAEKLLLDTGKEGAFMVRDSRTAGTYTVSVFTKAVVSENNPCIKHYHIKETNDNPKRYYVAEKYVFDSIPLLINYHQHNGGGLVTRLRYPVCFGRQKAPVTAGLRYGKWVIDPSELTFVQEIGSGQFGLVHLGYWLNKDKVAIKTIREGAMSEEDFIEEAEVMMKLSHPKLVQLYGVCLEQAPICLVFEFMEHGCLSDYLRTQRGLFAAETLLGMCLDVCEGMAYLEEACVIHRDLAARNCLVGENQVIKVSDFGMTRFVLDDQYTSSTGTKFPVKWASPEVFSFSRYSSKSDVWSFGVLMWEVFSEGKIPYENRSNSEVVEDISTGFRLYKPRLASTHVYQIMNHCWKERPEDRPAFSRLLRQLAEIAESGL
Method: as §1

JAK1 (h) = target: T9, JAK1 (h) (Homo sapiens, UniProt P23458); test: Kinase profiling (Eurofins Cerep); assay type: biochemical; settings: ATP at Km
T9 construct: purchased Eurofins Cerep S.A. (kinase profiler service)
T9 sequence (P23458 whole entry): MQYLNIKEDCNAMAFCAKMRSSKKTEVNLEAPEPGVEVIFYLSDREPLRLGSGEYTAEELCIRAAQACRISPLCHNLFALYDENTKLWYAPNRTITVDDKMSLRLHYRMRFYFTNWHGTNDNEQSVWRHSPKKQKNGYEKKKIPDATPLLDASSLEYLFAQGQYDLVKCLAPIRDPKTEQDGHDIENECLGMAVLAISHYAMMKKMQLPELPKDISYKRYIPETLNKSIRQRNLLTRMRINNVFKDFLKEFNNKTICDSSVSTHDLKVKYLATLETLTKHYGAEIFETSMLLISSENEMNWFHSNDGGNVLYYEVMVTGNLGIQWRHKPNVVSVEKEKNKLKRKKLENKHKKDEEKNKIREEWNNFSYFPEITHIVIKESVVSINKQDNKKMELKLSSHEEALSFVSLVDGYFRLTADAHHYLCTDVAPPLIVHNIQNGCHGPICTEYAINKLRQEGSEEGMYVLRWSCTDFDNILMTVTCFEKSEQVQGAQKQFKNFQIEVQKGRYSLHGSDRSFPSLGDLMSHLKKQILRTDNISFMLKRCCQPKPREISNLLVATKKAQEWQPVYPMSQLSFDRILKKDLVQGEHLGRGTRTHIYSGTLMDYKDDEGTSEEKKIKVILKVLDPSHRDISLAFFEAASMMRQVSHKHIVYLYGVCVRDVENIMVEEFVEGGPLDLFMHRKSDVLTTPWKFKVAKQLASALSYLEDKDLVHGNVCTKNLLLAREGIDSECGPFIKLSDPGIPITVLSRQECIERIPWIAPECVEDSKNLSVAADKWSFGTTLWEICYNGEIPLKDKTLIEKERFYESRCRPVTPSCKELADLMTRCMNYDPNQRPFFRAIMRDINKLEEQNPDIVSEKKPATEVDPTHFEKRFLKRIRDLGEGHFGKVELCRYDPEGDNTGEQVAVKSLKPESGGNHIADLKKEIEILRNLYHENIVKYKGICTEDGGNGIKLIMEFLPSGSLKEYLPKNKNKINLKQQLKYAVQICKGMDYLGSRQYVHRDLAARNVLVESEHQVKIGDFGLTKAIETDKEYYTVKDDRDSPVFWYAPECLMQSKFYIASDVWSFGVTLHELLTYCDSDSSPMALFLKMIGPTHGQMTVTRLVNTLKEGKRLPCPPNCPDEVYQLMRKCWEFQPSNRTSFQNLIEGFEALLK
Method: as §1

JAK2 (h) = target: T10, JAK2 (h) (Homo sapiens, UniProt O60674); test: Kinase profiling (Eurofins Cerep); assay type: biochemical; settings: ATP at Km
T10 construct: purchased Eurofins Cerep S.A. (kinase profiler service)
T10 sequence (O60674 whole entry): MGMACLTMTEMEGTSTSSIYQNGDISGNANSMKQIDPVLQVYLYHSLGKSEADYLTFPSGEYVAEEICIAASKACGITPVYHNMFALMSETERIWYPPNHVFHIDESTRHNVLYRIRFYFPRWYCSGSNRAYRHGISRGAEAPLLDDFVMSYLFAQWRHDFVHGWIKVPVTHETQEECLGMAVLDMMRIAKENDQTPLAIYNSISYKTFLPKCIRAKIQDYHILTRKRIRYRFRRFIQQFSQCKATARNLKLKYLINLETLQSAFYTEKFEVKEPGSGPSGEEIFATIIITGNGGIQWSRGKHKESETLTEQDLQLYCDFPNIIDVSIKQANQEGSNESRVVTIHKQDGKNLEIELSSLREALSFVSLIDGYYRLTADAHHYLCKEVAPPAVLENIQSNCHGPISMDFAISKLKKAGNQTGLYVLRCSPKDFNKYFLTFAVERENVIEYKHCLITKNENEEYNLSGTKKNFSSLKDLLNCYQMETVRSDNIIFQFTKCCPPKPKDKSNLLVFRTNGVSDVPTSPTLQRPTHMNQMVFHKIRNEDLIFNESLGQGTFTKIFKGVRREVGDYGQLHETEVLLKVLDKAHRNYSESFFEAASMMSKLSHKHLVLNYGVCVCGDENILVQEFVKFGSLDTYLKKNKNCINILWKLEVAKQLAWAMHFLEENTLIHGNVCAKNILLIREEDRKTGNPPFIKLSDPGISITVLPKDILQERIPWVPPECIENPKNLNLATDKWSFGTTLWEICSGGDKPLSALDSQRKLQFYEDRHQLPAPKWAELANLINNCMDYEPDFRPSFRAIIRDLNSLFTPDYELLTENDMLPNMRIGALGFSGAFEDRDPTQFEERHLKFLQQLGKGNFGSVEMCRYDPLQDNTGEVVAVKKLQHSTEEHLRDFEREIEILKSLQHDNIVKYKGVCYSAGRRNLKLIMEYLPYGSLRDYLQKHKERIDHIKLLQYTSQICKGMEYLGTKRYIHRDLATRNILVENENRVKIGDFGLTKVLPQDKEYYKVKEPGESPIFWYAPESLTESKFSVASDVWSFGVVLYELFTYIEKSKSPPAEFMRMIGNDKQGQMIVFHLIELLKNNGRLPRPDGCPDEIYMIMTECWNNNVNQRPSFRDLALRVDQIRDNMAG
Method: as §1

JAK3 (h) = target: T11, JAK3 (h) (Homo sapiens, UniProt P52333); test: Kinase profiling (Eurofins Cerep); assay type: biochemical; settings: ATP at Km
T11 construct: purchased Eurofins Cerep S.A. (kinase profiler service)
Method: as §1

JNK1α1 (h) = target: T12, JNK1α1 (h) (Homo sapiens, UniProt P45983); test: Kinase profiling (Eurofins Cerep); assay type: biochemical; settings: KMU-470 10 μM; ATP at Km
T12 construct: purchased Eurofins Cerep S.A. (kinase profiler service)
Method: as §1

Lck (h) = target: T13, Lck (h) (Homo sapiens, UniProt P06239); test: Kinase profiling (Eurofins Cerep); assay type: biochemical; settings: ATP at Km
T13 construct: purchased Eurofins Cerep S.A. (kinase profiler service)
Method: as §1

Lyn (h) = target: T14, Lyn (h) (Homo sapiens, UniProt P07948); test: Kinase profiling (Eurofins Cerep); assay type: biochemical; settings: ATP at Km
T14 construct: purchased Eurofins Cerep S.A. (kinase profiler service)
Method: as §1

MAPK1 (h) = target: T15, MAPK1 (h) (Homo sapiens, UniProt P27361); test: Kinase profiling (Eurofins Cerep); assay type: biochemical; settings: ATP at Km
T15 construct: purchased Eurofins Cerep S.A. (kinase profiler service)
T15 sequence (P27361 2-379 limits assumed): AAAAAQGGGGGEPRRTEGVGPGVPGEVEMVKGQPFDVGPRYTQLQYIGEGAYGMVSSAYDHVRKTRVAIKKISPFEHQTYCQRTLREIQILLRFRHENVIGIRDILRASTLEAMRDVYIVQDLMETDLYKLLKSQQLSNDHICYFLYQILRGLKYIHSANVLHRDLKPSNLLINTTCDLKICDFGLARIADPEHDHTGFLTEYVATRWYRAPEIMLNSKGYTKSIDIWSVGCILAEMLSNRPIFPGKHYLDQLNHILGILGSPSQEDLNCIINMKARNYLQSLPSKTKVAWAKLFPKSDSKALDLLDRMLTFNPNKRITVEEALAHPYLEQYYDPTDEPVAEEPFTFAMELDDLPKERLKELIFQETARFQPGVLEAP
Method: as §1

Pyk2 (h) = target: T16, Pyk2 (h) (Homo sapiens, UniProt Q14289); test: Kinase profiling (Eurofins Cerep); assay type: biochemical; settings: KMU-470 10 μM; ATP at Km
T16 construct: purchased Eurofins Cerep S.A. (kinase profiler service)
Method: as §1

SAPK2a (h) = target: T17, SAPK2a (h) (Homo sapiens, UniProt Q16539); test: Kinase profiling (Eurofins Cerep); assay type: biochemical; settings: KMU-470 10 μM; ATP at Km
T17 construct: purchased Eurofins Cerep S.A. (kinase profiler service)
Method: as §1

Syk (h) = target: T18, Syk (h) (Homo sapiens, UniProt P43405); test: Kinase profiling (Eurofins Cerep); assay type: biochemical; settings: ATP at Km
T18 construct: purchased Eurofins Cerep S.A. (kinase profiler service)
Method: as §1

TYK2 (h) = target: T19, TYK2 (h) (Homo sapiens, UniProt P29597); test: Kinase profiling (Eurofins Cerep); assay type: biochemical; settings: ATP at Km
T19 construct: purchased Eurofins Cerep S.A. (kinase profiler service)
T19 sequence (P29597 whole entry): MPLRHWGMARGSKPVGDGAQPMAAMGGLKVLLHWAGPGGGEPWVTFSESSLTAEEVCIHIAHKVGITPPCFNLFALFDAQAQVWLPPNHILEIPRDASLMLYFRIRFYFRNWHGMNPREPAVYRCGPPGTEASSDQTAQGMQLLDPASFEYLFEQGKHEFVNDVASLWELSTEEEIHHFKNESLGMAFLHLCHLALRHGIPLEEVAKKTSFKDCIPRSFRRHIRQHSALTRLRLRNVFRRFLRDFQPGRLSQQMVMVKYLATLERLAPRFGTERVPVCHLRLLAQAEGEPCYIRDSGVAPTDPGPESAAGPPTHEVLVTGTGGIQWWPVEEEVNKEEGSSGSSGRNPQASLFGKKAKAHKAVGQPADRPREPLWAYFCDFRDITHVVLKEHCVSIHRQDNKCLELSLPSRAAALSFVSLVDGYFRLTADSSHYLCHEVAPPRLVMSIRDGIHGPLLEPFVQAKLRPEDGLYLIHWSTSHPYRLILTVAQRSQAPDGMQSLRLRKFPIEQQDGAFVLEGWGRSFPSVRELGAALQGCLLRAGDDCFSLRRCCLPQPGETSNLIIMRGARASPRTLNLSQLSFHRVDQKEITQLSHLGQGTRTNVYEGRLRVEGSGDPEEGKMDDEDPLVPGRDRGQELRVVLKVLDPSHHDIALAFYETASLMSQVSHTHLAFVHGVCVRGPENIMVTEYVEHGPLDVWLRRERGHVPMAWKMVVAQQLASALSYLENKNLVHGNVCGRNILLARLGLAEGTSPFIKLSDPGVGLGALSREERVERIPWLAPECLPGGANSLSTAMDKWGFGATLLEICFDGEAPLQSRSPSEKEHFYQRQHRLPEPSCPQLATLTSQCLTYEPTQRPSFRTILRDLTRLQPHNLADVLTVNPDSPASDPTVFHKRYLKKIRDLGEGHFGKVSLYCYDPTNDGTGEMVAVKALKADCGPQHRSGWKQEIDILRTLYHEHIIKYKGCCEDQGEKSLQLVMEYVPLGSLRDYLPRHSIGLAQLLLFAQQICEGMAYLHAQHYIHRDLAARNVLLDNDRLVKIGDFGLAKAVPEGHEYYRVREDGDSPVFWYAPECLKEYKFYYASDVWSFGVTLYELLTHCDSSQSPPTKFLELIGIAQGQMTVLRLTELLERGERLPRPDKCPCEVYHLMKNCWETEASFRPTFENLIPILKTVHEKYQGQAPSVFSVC
Method: as §1

Tec (h) activated = target: T20, Tec (h) activated (Homo sapiens, UniProt P42680); test: Kinase profiling (Eurofins Cerep); assay type: biochemical; settings: KMU-470 10 μM; ATP at Km
T20 construct: purchased Eurofins Cerep S.A. (kinase profiler service)
Method: as §1

Txk (h) = target: T21, Txk (h) (Homo sapiens, UniProt P42681); test: Kinase profiling (Eurofins Cerep); assay type: biochemical; settings: KMU-470 10 μM; ATP at Km
T21 construct: purchased Eurofins Cerep S.A. (kinase profiler service)
Method: as §1

Yes (h) = target: T22, Yes (h) (Homo sapiens, UniProt P07947); test: Kinase profiling (Eurofins Cerep); assay type: biochemical; settings: ATP at Km
T22 construct: purchased Eurofins Cerep S.A. (kinase profiler service)
T22 sequence (P07947 whole entry): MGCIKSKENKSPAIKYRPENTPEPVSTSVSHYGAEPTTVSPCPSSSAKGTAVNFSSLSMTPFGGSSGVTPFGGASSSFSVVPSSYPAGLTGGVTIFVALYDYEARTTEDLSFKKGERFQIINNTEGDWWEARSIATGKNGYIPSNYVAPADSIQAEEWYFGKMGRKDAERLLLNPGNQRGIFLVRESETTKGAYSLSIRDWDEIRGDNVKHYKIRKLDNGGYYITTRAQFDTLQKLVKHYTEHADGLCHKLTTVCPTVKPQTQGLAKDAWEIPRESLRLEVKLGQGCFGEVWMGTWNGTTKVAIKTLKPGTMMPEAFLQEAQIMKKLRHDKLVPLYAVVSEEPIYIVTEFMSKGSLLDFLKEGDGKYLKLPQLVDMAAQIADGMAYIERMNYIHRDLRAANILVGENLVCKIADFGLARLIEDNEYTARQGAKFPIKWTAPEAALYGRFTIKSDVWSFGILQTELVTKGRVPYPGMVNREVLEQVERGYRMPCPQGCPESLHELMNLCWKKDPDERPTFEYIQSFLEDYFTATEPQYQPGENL
Method: as §1

ZAP-70 (h) = target: T23, ZAP-70 (h) (Homo sapiens, UniProt P43403); test: Kinase profiling (Eurofins Cerep); assay type: biochemical; settings: KMU-470 10 μM; ATP at Km
T23 construct: purchased Eurofins Cerep S.A. (kinase profiler service)
Method: as §1

NF-κB = test: LPS-induced phosphorylation of NF-κB in RAW 264.7 cells (Western blot); assay type: cell-based, murine; settings: KMU-470 0.5 and 1 μM 30 min, LPS 50 ng/mL 6 h
Method: Figure 5 Effect of KMU-470 on LPS-induced phosphorylation of MAPKs/ IKKs/ NF-κB in RAW 264.7 cells. (A) Cells were pre-treated with 1μM of KMU-470 for 24 h and stimulated with LPS (50 ng/mL) at the indicated times. (C) Cells were pre-treated with 0.5 and 1μM of KMU-470 for 30 min prior to LPS treatment. Total proteins were isolated after 6 h exposure to LPS (50 ng/mL). The protein expression level of MAPKs, p-IKKα/β, and p-NF-κB were assessed using Western blot analyses. (B,D) The relative optical densities of MAPKs, p-IKKα/β, and p-NF-κB bands were analyzed by the Image-J program. *** p < 0.001.
RAW 264.7 cells were pre-treated with KMU-470 (0.5–1 μM/mL) for 24 h and stimulated with LPS (50 ng/mL) for 6 h. After stimulation, total cells were harvested, washed with PBS buffer, and then the total protein was extracted with a RIPA buffer (0.1 mM sodium orthovanadate, 137 mM NaCl, 15 mM EGTA, 0.1% Triton X-100, 25 mM MOPS, 15 mM MgCl2, 100 μM phenylmethylsulfonyl fluoride, and 20 μM leupeptin, adjusted to pH 7.2). […] Immunoreactive proteins were detected using the ELC Western blot detection system kit (Millipore). Signal intensity was measured using the Chemi Image documentation system (Fusion Fx7, VILBER LOUTMAT). Protein expression levels were quantified using the Image J program.

Structure (SMILES): CN(C)CCNc1cncc(-c2ccc3c(c2)/C(=C/c2cnc[nH]2)C(=O)N3)n1 [KMU-470, (Z)-3-((1H-Imidazol-5-yl)methylene)-5-(6-((2-(dimethylamino)ethyl)amino)pyrazin-2-yl)indolin-2-one]
- Activity (% Control) BTK (h) (BTK (h)): 80 % Control
- Activity (% Control) Blk (h) (Blk (h); KMU-470 1 μM): 53 % Control
- Activity (% Control) Blk (h) (Blk (h); KMU-470 10 μM): 5 % Control
- Activity (% Control) Bmx (h) (Bmx (h)): 47 % Control
- Activity (% Control) Csrc (h) (Csrc (h)): 43 % Control
- Activity (% Control) Fgr (h) (Fgr (h); KMU-470 1 μM): 42 % Control
- Activity (% Control) Fgr (h) (Fgr (h); KMU-470 10 μM): 8 % Control
- Activity (% Control) Fyn (h) (Fyn (h); KMU-470 1 μM): 97 % Control
- Activity (% Control) Fyn (h) (Fyn (h); KMU-470 10 μM): 16 % Control
- Activity (% Control) Hck (h) (Hck (h)): 37 % Control
- Activity (% Control) Itk (h) (Itk (h); KMU-470 1 μM): 75 % Control
- Activity (% Control) Itk (h) (Itk (h); KMU-470 10 μM): 21 % Control
- Activity (% Control) JAK1 (h) (JAK1 (h); KMU-470 1 μM): 61 % Control
- Activity (% Control) JAK1 (h) (JAK1 (h); KMU-470 10 μM): 20 % Control
- Activity (% Control) JAK2 (h) (JAK2 (h); KMU-470 1 μM): 107 % Control
- Activity (% Control) JAK2 (h) (JAK2 (h); KMU-470 10 μM): 23 % Control
- Activity (% Control) JAK3 (h) (JAK3 (h); KMU-470 1 μM): 38 % Control
- Activity (% Control) JAK3 (h) (JAK3 (h); KMU-470 10 μM): 15 % Control
- Activity (% Control) JNK1α1 (h) (JNK1α1 (h)): 34 % Control
- Activity (% Control) Lck (h) (Lck (h); KMU-470 1 μM): 41 % Control
- Activity (% Control) Lck (h) (Lck (h); KMU-470 10 μM): 14 % Control
- Activity (% Control) Lyn (h) (Lyn (h); KMU-470 1 μM): 30 % Control
- Activity (% Control) Lyn (h) (Lyn (h); KMU-470 10 μM): 10 % Control
- Activity (% Control) MAPK1 (h) (MAPK1 (h); KMU-470 1 μM): 6 % Control
- Activity (% Control) MAPK1 (h) (MAPK1 (h); KMU-470 10 μM): −18 % Control
- Activity (% Control) Pyk2 (h) (Pyk2 (h)): 41 % Control
- Activity (% Control) SAPK2a (h) (SAPK2a (h)): 77 % Control
- Activity (% Control) Syk (h) (Syk (h); KMU-470 1 μM): 82 % Control
- Activity (% Control) Syk (h) (Syk (h); KMU-470 10 μM): 21 % Control
- Activity (% Control) TYK2 (h) (TYK2 (h); KMU-470 1 μM): 54 % Control
- Activity (% Control) TYK2 (h) (TYK2 (h); KMU-470 10 μM): 14 % Control
- Activity (% Control) Tec (h) activated (Tec (h) activated): 71 % Control
- Activity (% Control) Txk (h) (Txk (h)): 50 % Control
- Activity (% Control) Yes (h) (Yes (h); KMU-470 1 μM): 22 % Control
- Activity (% Control) Yes (h) (Yes (h); KMU-470 10 μM): −3 % Control
- Activity (% Control) ZAP-70 (h) (ZAP-70 (h)): 100 % Control
- LPS-induced phosphorylation of NF-κB (NF-κB): significantly reduced
